Data as given in US20260071117A1, “FUNABLE FLUORESCENT COMPOUNDS AND USES THEREOF” (Arizona Board of Regents on Behalf of the University of …, priority 2021, published 2026).

Experiment: Absorbance and fluorescence measurements (excitation maximum, emission maximum, quantum yield vs coumarin 151)
Assay type: physicochemical
Set-up: key to Quantum Yield: fraction relative to coumarin 151 in ethanol standard
Conditions: for λex: absorbance/excitation maximum; for λem: emission maximum
Description: All reagents and solvents were acquired from commercially available suppliers and used without further purification. Methanol(dried on molecular sieves-Acroseal) was obtained from Acros. […] 1H and 13C NMR spectra were obtained on a Bruker NMR spectrometer at 500/400 and 125/100 MHz respectively. The data is reported as follows: chemical shift in ppm (δ), multiplicity (s=singlet, d=doublet, dd=doublet of doublets, t=triplet, dt=doublet of triplets, td=triplet of doublets, q=quartet, p=pentet, m=multiplet). Coupling constants are reported in Hertz (Hz) and were automatically generated using known NMR analyzer software (MestReNova), these were then subsequently curated. High-resolution mass spectra were obtained using the positive ESI method for all the compounds, obtained in an Ion Cyclotron Resonance (ICR) spectrometer. Absorbance spectra were obtained using an Agilent 8453 UV-visible spectroscopy system. Fluorescence was measured on a Varian (Agilent) Cary Eclipse Fluorimeter. Quantum yield measurements were calculated and reported using coumarin 151 in ethanol as a standard.^1 Fluorescence scans were obtained using a 2.5 mm slit width unless otherwise noted.
The fluorescence was also measured in different solvents to examine the solvent effects.

[1] = coumarin 151 in ethanol as standard, 2.5 mm slit width, measurements run with methanol
[2] = 2.5 mm slit width, measurements run with methanol

| Structure (SMILES) | λex (measurements run with methanol) | Quantum Yield [1] | λem [2] | fluorescence (observation in words) | Quantum Yield (tetracyclic indolizines of Example I) | Quantum Yield (10 mm slit, coumarin 151 in ethanol as standard) | λem (10 mm slit width) |
| --- | --- | --- | --- | --- | --- | --- | --- |
| Nc1c(-c2ccc3ccccc3c2)nc2ccccn12 [Compound 10e, 2-(naphthalen-2-yl)imidazo[1,2-a]pyridin-3-amine] | 345 nm | 0.28 | 475 nm |  |  |  |  |
| COc1cc(-c2nc3ccccn3c2N)cc(OC)c1OC [Compound 10c, 2-(3,4,5-trimethoxyphenyl)imidazo[1,2-a]pyridin-3-amine] | 343 nm | 0.38 | 472 nm |  |  |  |  |
| Nc1c(-c2ccc(Oc3ccccc3)cc2)nc2ccccn12 [Compound 10m, 2-(4-phenoxyphenyl)imidazo[1,2-a]pyridin-3-amine] | 343 nm | 0.40 | 474 nm |  |  |  |  |
| COC(=O)c1ccn2c(N)c(-c3ccc(N(c4ccccc4)c4ccccc4)cc3)nc2c1 [Compound 10an, methyl 3-amino-2-(4-(diphenylamino)phenyl)imidazo[1,2-a]pyridine-7-carboxylate] | 430 nm | 0.44 | 529 nm |  |  |  |  |
| Nc1c(-c2ccccn2)nc2ccccn12 [Compound 10h, 2-(pyridin-2-yl)imidazo[1,2-a]pyridin-3-amine] | 370 nm |  |  |  |  |  |  |
| COc1cc(-c2nc3cc([N+](=O)[O-])ccn3c2N)cc(OC)c1OC [Compound 10az, 7-nitro-2-(3,4,5-trimethoxyphenyl)imidazo[1,2-a]pyridin-3-amine] | 485 nm |  |  |  |  | 0.11 | 651 nm |
| COc1ccc(-c2nc3cccnn3c2N)c(OC)c1 [Compound 10ae, 2-(2,4-dimethoxyphenyl)imidazo[1,2-b]pyridazin-3-amine] | 433 nm | 0.02 | 555 nm |  |  |  |  |
| COc1ccc(-c2nc3cc(OC)ccn3c2N)cc1 [Compound 10at, 7-methoxy-2-(4-methoxyphenyl)imidazo[1,2-a]pyridin-3-amine] | 344 nm | 0.10 | 500 nm |  |  |  |  |
| COC(=O)c1ccn2c(N)c(-c3ccc(OC)cc3OC)nc2c1 [Compound 10am, methyl 3-amino-2-(2,4-dimethoxyphenyl)imidazo[1,2-a]pyridine-7-carboxylate] | 402 nm | 0.49 | 519 nm |  |  |  |  |
| Nc1c(-c2ccc(N(c3ccccc3)c3ccccc3)cc2)nc2ccccn12 [Compound 10p, 2-(4-(diphenylamino)phenyl)imidazo[1,2-a]pyridin-3-amine] | 353 nm | 0.34 | 471 nm |  |  |  |  |
| COc1ccc(-c2nc3ccccn3c2N)cc1 [Compound 10g, 2-(4-methoxyphenyl)imidazo[1,2-a]pyridin-3-amine] | 340 nm | 0.39 | 472 nm |  |  |  |  |
| N#Cc1ccc(-c2nc3ccc(N4CCCCC4)cn3c2N)cc1 [Compound 10av, 4-(3-amino-6-(piperidin-1-yl)imidazo[1,2-a]pyridin-2-yl)benzonitrile] | 375 nm | 0.03 | 482 nm |  |  |  |  |
| CCN(CC)c1ccc(-c2nc3cc(C(=O)OC)ccn3c2N)cc1 [Compound 10ao, methyl 3-amino-2-(4-(diethylamino)phenyl)imidazo[1,2-a]pyridine-7-carboxylate] | 432 nm | 0.25 | 540 nm |  |  |  |  |
| COC(=O)c1ccn2c(N)c(-c3ccccc3)nc2c1 [Compound 10ah, methyl 3-amino-2-phenylimidazo[1,2-a]pyridine-7-carboxylate] | 394 nm | 0.40 | 510 nm |  |  |  |  |
| CC(C)(C)Nc1c(-c2ccc(-c3nc4ccccn4c3NC(C)(C)C)cc2)nc2ccccn12 [Compound 10ap, 2,2′-(1,4-phenylene)bis(N-(tert-butyl)imidazo[1,2-a]pyridin-3-amine)] | 344 nm | 0.30 | 458 nm |  |  |  |  |

Now from value to compound:

| λex (measurements run with methanol) | Quantum Yield [1] | λem [2] | fluorescence (observation in words) | Quantum Yield (tetracyclic indolizines of Example I) | Quantum Yield (10 mm slit, coumarin 151 in ethanol as standard) | λem (10 mm slit width) | Structure (SMILES) |
| --- | --- | --- | --- | --- | --- | --- | --- |
| 506 nm | 0.10 | 589 nm |  |  |  |  | COc1cc(/C=C/c2nc3nc(-c4cc(OC)cc(OC)c4)c(/N=C/c4cc(OC)cc(OC)c4)n3nc2C)cc(OC)c1 [Compound 62, (E)-1-(3,5-dimethoxyphenyl)-N-(6-(3,5-dimethoxyphenyl)-3-((E)-3,5-dimethoxystyryl)-2-methylimidazo[1,2-b][1,2,4]triazin-7-yl)methanimine] |
| 365 nm | 0.01 | 422 nm | not observable by the naked eye | 0.01 |  |  | COc1cc(OC)c2c(-c3ccccc3)nc3c(nc4ccccn43)c2c1 [Compound 18a, 2,4-dimethoxy-5-phenylpyrido[2′,1′:2,3]imidazo[4,5-c]isoquinoline] |
| 533 nm | 0.10 | 611 nm |  |  |  |  | COc1cc(/C=C/c2nc3nc(-c4cc(OC)c(OC)c(OC)c4)c(/N=C/c4cc(OC)c(OC)c(OC)c4)n3nc2C)cc(OC)c1OC [Compound 64, (E)-N-(2-methyl-6-(3,4,5-trimethoxyphenyl)-3-((E)-3,4,5-trimethoxystyryl)imidazo[1,2-b][1,2,4]triazin-7-yl)-1-(3,4,5-trimethoxyphenyl)methanimine] |
| 407 nm | 0.02 | 546 nm |  |  |  |  | COc1cc(OC)cc(-c2nc3cccnn3c2N)c1 [Compound lot, 2-(3,5-dimethoxyphenyl)imidazo[1,2-b]pyridazin-3-amine] |
| 265 nm | 0.002 | 553 nm |  |  |  |  | COc1cc(-c2nc3c(nc4cccc(Br)n43)c3cc(OC)c(OC)c(OC)c23)cc(OC)c1OC [Compound 16h, 8-bromo-2,3,4-trimethoxy-5-(3,4,5-trimethoxyphenyl)pyrido[2′,1′:2,3]imidazo[4,5-c]isoquinoline] |
| 343 nm | 0.28 | 474 nm |  |  |  |  | Cc1cc(C)cc(-c2nc3ccccn3c2N)c1 [Compound 101, 2-(3,5-dimethylphenyl)imidazo[1,2-a]pyridin-3-amine] |
| 349 nm | 0.01 | 487 nm |  |  |  |  | COc1cc(OC)cc(-c2nc3cc(Br)ccn3c2N)c1 [Compound 10y, 7-bromo-2-(3,5-dimethoxyphenyl)imidazo[1,2-a]pyridin-3-amine] |
| 485 nm | 0.22 | 643 nm |  |  |  |  | Cc1nn2c(NC(C)(C)C)c(-c3ccc4ccccc4c3)nc2nc1/C=C/c1ccc2ccccc2c1 [Compound 43, (E)-N-(tert-butyl)-2-methyl-6-(naphthalen-2-yl)-3-(2-(naphthalen-2-yl)vinyl)imidazo[1,2-b][1,2,4]triazin-7-amine] |
| 566 nm | 0.45 | 653 nm |  |  |  |  | CCN(CC)c1ccc(/C=C/c2nc3nc(-c4ccc(N(CC)CC)cc4)c(NC(C)(C)C)n3nc2C)cc1 [Compound 49, (E)-N-(tert-butyl)-6-(4-(diethylamino)phenyl)-3-(4-(diethylamino)styryl)-2-methylimidazo[1,2-b][1,2,4]triazin-7-amine] |
| 364 nm | 0.01 | 415 nm |  |  |  |  | COc1cc(OC)cc(-c2nc3c(nc4ccccn43)c3cc(OC)cc(OC)c23)c1 [Compound 16d, 5-(3,5-dimethoxyphenyl)-2,4-dimethoxypyrido[2′,1′:2,3]imidazo[4,5-c]isoquinoline] |
| 498 nm | 0.24 | 636 nm |  |  |  |  | Cc1nn2c(NCc3ccccc3)c(-c3ccccc3)nc2nc1/C=C/c1ccccc1 [Compound 74, (E)-N-benzyl-2-methyl-6-phenyl-3-styrylimidazo[1,2-b][1,2,4]triazin-7-amine] |
| 510 nm | 0.04 | 601 nm |  |  |  |  | Cc1nn2c(/N=C/c3ccccc3)c(-c3ccccc3)nc2nc1/C=C/c1ccccc1 [Compound 58, (E)-N-(2-methyl-6-phenyl-3-((E)-styryl)imidazo[1,2-b][1,2,4]triazin-7-yl)-1-phenylmethanimine] |
| 529 nm | 0.34 | 646 nm |  |  |  |  | Cc1nn2c(NCc3ccccc3)c(-c3ccc4ccccc4c3)nc2nc1/C=C/c1ccc2ccccc2c1 [Compound 75, (E)-N-benzyl-2-methyl-6-(naphthalen-2-yl)-3-(2-(naphthalen-2-yl)vinyl)imidazo[1,2-b][1,2,4]triazin-7-amine] |
| 572 nm | 0.19 | 615 nm |  |  |  |  | Cc1nn2c(/N=C/c3cccs3)c(-c3cccs3)nc2nc1/C=C/c1cccs1 [Compound 63, (E)-N-(2-methyl-6-(thiophen-2-yl)-3-((E)-2-(thiophen-2-yl)vinyl)imidazo[1,2-b][1,2,4]triazin-7-yl)-1-(thiophen-2-yl)methanimine] |
| 370 nm |  |  | quenched the fluorescence fully |  |  |  | COc1cc(OC)c2c(-c3ccc([N+](=O)[O-])cc3)nc3c(nc4ccccn43)c2c1 [Compound 18b, 2,4-dimethoxy-5-(4-nitrophenyl)pyrido[2′,1′:2,3]imidazo[4,5-c]isoquinoline] |
|  |  |  | quenched fluorescence |  |  |  | COc1cccc(/C=N/c2c(-c3cccc(OC)c3)c(C#N)c3ccccn23)c1 [Compound 14a, (E)-3-((3-methoxybenzylidene)amino)-2-(3-methoxyphenyl)indolizine-1-carbonitrile] |
